Source: ChEMBL document CHEMBL1909046, “DrugMatrix in vitro pharmacology data”

Experiments:
[1] = DRUGMATRIX: Phosphodiesterase PDE4 enzyme inhibition (substrate: [3H]cAMP + cAMP); conditions: u-937, Not Active = under 50% inhibition at 10 µM
Glycine receptor = Glycine receptor (Rattus norvegicus, UniProt P22771+P24524+P07727+P20781); format: cell membranes, Wistar, Spinal cord, Membrane; further: in other assays of this panel Not Active means under 50% inhibition at 10 µM
[2] = target: C-C chemokine receptor type 5 (Homo sapiens, UniProt P51681); format: cell membranes, HEK293, Membrane; conditions: hek293; further: in other assays of this panel Not Active means under 50% inhibition at 10 µM
Substance-P receptor = Substance-P receptor (Homo sapiens, UniProt P25103); format: cell membranes, Membrane; conditions: cho; further: in other assays of this panel Not Active means under 50% inhibition at 10 µM
[3] = target: 5-hydroxytryptamine receptor 4 (Cavia porcellus, UniProt O70528); format: cell membranes, Dunkin-Hartley, Striatum, Membrane; further: in other assays of this panel Not Active means under 50% inhibition at 10 µM
[4] = DRUGMATRIX: Platelet-Derived Growth Factor (PDGF) radioligand binding (ligand: [125I] PDGF); format: cell-based; conditions: nih3t3; Not Active = under 50% inhibition at 10 µM
[5] = target: Receptor tyrosine-protein kinase erbB-2 (Homo sapiens, UniProt P04626); format: cell-based; conditions: insect cells
Receptor tyrosine-protein kinase erbB-2, sequence (P04626 whole entry): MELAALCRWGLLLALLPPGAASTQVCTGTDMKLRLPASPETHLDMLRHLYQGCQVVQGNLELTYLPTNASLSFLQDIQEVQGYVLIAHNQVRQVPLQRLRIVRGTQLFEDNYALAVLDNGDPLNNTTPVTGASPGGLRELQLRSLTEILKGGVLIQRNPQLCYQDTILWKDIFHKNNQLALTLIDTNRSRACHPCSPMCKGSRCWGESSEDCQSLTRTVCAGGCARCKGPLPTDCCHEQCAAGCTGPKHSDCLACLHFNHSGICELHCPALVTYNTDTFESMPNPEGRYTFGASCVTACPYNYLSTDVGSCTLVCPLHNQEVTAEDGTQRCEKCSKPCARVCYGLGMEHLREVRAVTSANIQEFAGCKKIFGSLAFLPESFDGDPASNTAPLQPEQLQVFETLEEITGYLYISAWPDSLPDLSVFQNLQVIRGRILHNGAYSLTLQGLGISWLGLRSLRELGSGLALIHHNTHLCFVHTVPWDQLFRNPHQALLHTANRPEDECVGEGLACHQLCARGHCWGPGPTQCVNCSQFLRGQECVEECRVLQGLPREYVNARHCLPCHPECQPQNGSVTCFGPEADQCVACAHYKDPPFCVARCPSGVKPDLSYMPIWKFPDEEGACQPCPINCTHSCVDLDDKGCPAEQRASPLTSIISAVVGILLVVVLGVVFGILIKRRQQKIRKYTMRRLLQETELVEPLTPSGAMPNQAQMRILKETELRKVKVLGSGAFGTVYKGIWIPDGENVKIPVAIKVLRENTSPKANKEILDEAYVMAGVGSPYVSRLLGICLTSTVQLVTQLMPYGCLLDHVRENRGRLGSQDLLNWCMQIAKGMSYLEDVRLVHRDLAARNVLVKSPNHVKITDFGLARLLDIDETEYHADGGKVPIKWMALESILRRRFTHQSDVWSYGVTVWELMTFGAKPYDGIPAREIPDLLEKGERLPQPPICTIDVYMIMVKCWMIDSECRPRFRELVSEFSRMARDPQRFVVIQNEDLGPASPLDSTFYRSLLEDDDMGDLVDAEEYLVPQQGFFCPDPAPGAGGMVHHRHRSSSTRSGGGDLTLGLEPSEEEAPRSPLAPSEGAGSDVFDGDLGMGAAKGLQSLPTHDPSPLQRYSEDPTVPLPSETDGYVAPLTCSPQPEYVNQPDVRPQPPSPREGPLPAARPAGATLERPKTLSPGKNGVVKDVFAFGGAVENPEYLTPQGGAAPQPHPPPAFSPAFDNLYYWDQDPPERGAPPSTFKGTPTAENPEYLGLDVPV

5-hydroxytryptamine receptor 4, sequence (O70528 whole entry): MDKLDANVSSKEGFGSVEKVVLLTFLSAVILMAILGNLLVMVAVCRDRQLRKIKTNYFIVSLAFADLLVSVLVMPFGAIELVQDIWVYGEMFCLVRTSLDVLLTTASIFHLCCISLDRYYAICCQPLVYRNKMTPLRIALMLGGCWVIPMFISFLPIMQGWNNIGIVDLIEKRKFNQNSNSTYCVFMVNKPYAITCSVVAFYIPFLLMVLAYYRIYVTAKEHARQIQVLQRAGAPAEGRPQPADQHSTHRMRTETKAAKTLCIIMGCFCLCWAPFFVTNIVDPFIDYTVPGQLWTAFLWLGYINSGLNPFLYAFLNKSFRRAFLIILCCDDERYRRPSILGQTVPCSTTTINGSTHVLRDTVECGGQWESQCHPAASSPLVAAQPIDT
C-C chemokine receptor type 5, sequence (P51681 whole entry): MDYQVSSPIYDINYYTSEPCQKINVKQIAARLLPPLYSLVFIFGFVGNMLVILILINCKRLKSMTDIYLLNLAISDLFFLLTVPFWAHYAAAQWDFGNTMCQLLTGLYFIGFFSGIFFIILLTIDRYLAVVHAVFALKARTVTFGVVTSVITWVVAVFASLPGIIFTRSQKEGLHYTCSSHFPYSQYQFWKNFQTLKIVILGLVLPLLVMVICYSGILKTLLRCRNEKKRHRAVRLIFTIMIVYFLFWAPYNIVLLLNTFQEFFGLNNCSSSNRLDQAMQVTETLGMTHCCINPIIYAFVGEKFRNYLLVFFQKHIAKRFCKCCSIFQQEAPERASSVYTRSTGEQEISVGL
Substance-P receptor, sequence (P25103 whole entry): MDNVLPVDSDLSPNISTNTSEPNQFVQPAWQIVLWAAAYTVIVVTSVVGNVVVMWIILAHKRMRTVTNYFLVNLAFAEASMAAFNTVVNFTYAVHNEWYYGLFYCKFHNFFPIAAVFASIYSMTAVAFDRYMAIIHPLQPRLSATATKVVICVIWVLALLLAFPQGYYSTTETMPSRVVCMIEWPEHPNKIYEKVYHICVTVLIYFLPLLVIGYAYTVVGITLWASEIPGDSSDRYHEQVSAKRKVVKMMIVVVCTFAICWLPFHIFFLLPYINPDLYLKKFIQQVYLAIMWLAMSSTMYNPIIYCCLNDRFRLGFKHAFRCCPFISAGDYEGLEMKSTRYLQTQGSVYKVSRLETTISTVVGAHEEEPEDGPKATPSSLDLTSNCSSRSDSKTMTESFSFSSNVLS

| SMILES | IC50 [1] | Ki [1] | IC50 (Glycine receptor) | IC50 [2] | IC50 (Substance-P receptor) | IC50 [3] | IC50 [4] | Ki [4] | IC50 [5] | IC50 ([1]; read-out: IC50) [nM] | IC50 ([3]; read-out: IC50) [nM] | Ki ([3]; read-out: Ki) [nM] |
| --- | --- | --- | --- | --- | --- | --- | --- | --- | --- | --- | --- | --- |
| Cc1ccc(S(=O)(=O)NC(=O)NN2CCCCCC2)cc1 [TOLAZAMIDE] | Not Active | Not Active | Not Active | Not Active | Not Active | Not Active | Not Active | Not Active | Not Active | – | – | – |
| CC(Cl)(Cl)Cl [TRICHLOROETHANE] | Not Active | Not Active | Not Active | Not Active | Not Active | Not Active | Not Active | Not Active | Not Active | – | – | – |
| CC(C)(C)NC[C@H](O)COc1cccc2c1CCCC2=O [LEVOBUNOLOL] | Not Active | Not Active | Not Active | Not Active | Not Active | Not Active | Not Active | Not Active | Not Active | – | – | – |
| CCN1CCCC1CNC(=O)c1cc(S(N)(=O)=O)ccc1OC (stereo unspecified) [SULPIRIDE] | Not Active | Not Active | Not Active | Not Active | Not Active | Not Active | Not Active | Not Active | Not Active | – | – | – |
| Cc1cccc(C)c1NC(=O)C(C)N (stereo unspecified) [TOCAINIDE] | Not Active | Not Active | Not Active | Not Active | Not Active | Not Active | Not Active | Not Active | Not Active | – | – | – |
| CCOC(=O)C1=C(C)NC(C)=C(C(=O)OCC)C1c1ccccc1/C=C/C(=O)OC(C)(C)C [LACIDIPINE] | Not Active | Not Active | Not Active | Not Active | Not Active | Not Active | Not Active | Not Active | Not Active | – | – | – |
| C=CCc1ccc2c(c1)OCO2 [SAFROLE] | Not Active | Not Active | Not Active | Not Active | Not Active | Not Active | Not Active | Not Active | Not Active | – | – | – |
| O=C(OC[C@H]1O[C@@H](OC(=O)c2cc(O)c(O)c(OC(=O)c3cc(O)c(O)c(O)c3)c2)[C@H](OC(=O)c2cc(O)c(O)c(OC(=O)c3cc(O)c(O)c(O)c3)c2)[C@@H](OC(=O)c2cc(O)c(O)c(OC(=O)c3cc(O)c(O)c(O)c3)c2)[C@@H]1OC(=O)c1cc(O)c(O)c(OC(=O)c2cc(O)c(O)c(O)c2)c1)c1cc(O)c(O)c(OC(=O)c2cc(O)c(O)c(O)c2)c1 [TANNIC ACID] | – | – | Not Active | Not Active | Not Active | Not Active | Not Active | Not Active | Not Active | 1040 | – | – |
| CO[C@@]12[C@H](COC(N)=O)C3=C(C(=O)C(C)=C(N)C3=O)N1C[C@@H]1N[C@@H]12 [MITOMYCIN] | Not Active | Not Active | Not Active | Not Active | Not Active | Not Active | Not Active | Not Active | Not Active | – | – | – |
| CN1C[C@H](CNC(=O)OCc2ccccc2)C[C@@H]2c3cccc4c3c(cn4C)C[C@H]21 [METERGOLINE] | Not Active | Not Active | Not Active | Not Active | Not Active | – | Not Active | Not Active | Not Active | – | 1640 | 274 |
| Cc1[nH]c(=O)c(C#N)cc1-c1ccncc1 [MILRINONE] | Not Active | Not Active | Not Active | Not Active | Not Active | Not Active | Not Active | Not Active | Not Active | – | – | – |
| O=C1CC[C@@]2(O)[C@H]3Cc4ccc(O)c5c4[C@@]2(CCN3CC2CC2)[C@H]1O5 [NALTREXONE] | Not Active | Not Active | Not Active | Not Active | Not Active | Not Active | Not Active | Not Active | Not Active | – | – | – |
| COC(=O)Nc1nc2ccc(C(=O)c3ccccc3)cc2[nH]1 [MEBENDAZOLE] | Not Active | Not Active | Not Active | Not Active | Not Active | Not Active | Not Active | Not Active | Not Active | – | – | – |
| CC(=O)O[C@]1(C(C)=O)CC[C@H]2[C@@H]3C[C@H](C)C4=CC(=O)CC[C@]4(C)[C@H]3CC[C@@]21C [MEDROXYPROGESTERONE ACETATE] | Not Active | Not Active | Not Active | Not Active | Not Active | Not Active | Not Active | Not Active | Not Active | – | – | – |
| Cc1cn([C@H]2C=C[C@@H](CO)O2)c(=O)[nH]c1=O [STAVUDINE] | Not Active | Not Active | Not Active | Not Active | Not Active | Not Active | Not Active | Not Active | Not Active | – | – | – |
| Cc1cnc(NC(=O)C2=C(O)c3ccccc3S(=O)(=O)N2C)s1 [MELOXICAM] | Not Active | Not Active | Not Active | Not Active | Not Active | Not Active | Not Active | Not Active | Not Active | – | – | – |
| CC(O)C(=O)O (stereo unspecified) [LACTIC ACID] | Not Active | Not Active | Not Active | Not Active | Not Active | Not Active | Not Active | Not Active | Not Active | – | – | – |
| C1CCN2C[C@@H]3C[C@@H](CN4CCCC[C@@H]34)[C@H]2C1 [SPARTEINE] | Not Active | Not Active | Not Active | Not Active | Not Active | Not Active | Not Active | Not Active | Not Active | – | – | – |
| CC(N)C12CC3CC(CC(C3)C1)C2 (stereo unspecified) [RIMANTADINE] | Not Active | Not Active | Not Active | Not Active | Not Active | Not Active | Not Active | Not Active | Not Active | – | – | – |
